Holding throughout (format): biochemical
For one test, the target named is T1, hCA XII (Homo sapiens, UniProt O43570).
T1 construct: made in house
Nature of the test: stopped-flow CO2 hydrase assay, hCA XII. The settings on record: for Ki: recombinant enzyme, stopped-flow CO2 hydrase assay, mean from 3 different assays, errors ± 5–10%; for SR XII/II (Selectivity Ratio): selectivity for inhibiting hCA XII over hCA II (values equal Ki hCA II / Ki hCA XII). The method, then:
(§1) An Applied Photophysics stopped-flow instrument has been used for assaying the CA-catalysed CO2 hydration activity. Phenol red (at a concentration of 0.2 mM) has been used as indicator, working at the absorbance maximum of 557 nm, with 20 mM Hepes (pH 7.5) as buffer, and 20 mM Na2SO4 (for maintaining constant the ionic strength), following the initial rates of the CA-catalysed CO2 hydration reaction for a period of 10–100 s. CO2 concentrations ranged from 1.7 to 17 mM for the determining inhibition constants. […] Uncatalyzed rates were determined in the same manner and subtracted from the total observed rates. Stock solutions of inhibitor (0.1 mM) were prepared in buffer with a maximum 3% DMSO, and dilutions up to 0.01 nM were done with the assay buffer. Inhibitor and enzyme solutions were preincubated for 15 min at room temperature prior to assay, in order to allow for the formation of the E–I complex. The inhibition constants were obtained by nonlinear least-squares methods using PRISM 3 and the Cheng-Prusoff equation, as reported earlier, and represent the mean from at least three different determinations. All CA isoforms were recombinant ones obtained in-house as reported earlier.
(§2) AAZ 1 was used as the standard drug in the assay.

For a further test, the target named is T2, hCA IX (Homo sapiens, UniProt Q16790).
T2 construct: made in house
Nature of the test: stopped-flow CO2 hydrase assay, hCA IX. The settings on record: for Ki: recombinant enzyme, stopped-flow CO2 hydrase assay, mean from 3 different assays, errors ± 5–10%; for SR IX/II (Selectivity Ratio): selectivity for inhibiting hCA IX over hCA II (values equal Ki hCA II / Ki hCA IX). The method, then: as §1, §2

Another test deals with T3, hCA II (Homo sapiens, UniProt P00918).
T3 construct: made in house
Nature of the test: stopped-flow CO2 hydrase assay, hCA II. The settings on record: recombinant enzyme, mean from 3 different assays, errors ± 5–10%. The method, then:
as §1, §2

In the next test the target is T4, hCA I (Homo sapiens, UniProt P00915).
T4 construct: made in house
T4 sequence (P00915 whole entry): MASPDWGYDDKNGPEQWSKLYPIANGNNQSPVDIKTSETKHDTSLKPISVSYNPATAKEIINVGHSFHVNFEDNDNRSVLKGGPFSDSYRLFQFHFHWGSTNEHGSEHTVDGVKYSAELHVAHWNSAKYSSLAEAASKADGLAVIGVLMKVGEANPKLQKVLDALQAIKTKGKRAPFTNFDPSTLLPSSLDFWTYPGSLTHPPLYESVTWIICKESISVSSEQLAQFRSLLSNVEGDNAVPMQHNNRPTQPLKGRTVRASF
Nature of the test: stopped-flow CO2 hydrase assay, hCA I. The settings on record: recombinant enzyme, mean from 3 different assays, errors ± 5–10%. The method, then:
as §1, §2

T1 sequence (O43570 25-354): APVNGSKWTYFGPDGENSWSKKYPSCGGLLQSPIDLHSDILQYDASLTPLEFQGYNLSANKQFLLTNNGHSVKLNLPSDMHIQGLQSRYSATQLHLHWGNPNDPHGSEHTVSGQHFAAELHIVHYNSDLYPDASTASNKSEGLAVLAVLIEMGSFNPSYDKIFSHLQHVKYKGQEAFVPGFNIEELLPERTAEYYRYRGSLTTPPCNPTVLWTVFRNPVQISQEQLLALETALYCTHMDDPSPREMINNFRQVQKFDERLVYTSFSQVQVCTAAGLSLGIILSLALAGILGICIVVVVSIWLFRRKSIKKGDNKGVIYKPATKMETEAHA

As a reminder, the Ki is the equilibrium dissociation constant of an inhibitor or competing ligand from its target. Regarding `COC(=O)c1cc(CCc2nc3ccc(S(N)(=O)=O)cc3[nH]2)ccc1O` [Compound 17, Methyl 2-hydroxy-5-(2-(6-sulfamoyl-1H-benzo[d]imidazol-2-yl)ethyl)benzoate], the Ki at hCA XII was found to be 7.9 nM; on hCA IX, 5.9 nM; on hCA II, 52.7 nM; on hCA I, 427 nM. In addition, the “SR XII/II (Selectivity Ratio)” value at hCA XII was determined as 6.7. Besides, the “SR IX/II (Selectivity Ratio)” value on hCA IX is 8.9.
Turning to `CCNS(=O)(=O)c1ccc2nc(-c3ccc(O)c(C(=O)OC)c3)[nH]c2c1` [Compound 15, Methyl 5-(6-(N-ethylsulfamoyl)-1H-benzo[d]imidazol-2-yl)-2-hydroxybenzoate], the inhibition constant (Ki) is 813 nM at hCA XII, 390 nM at hCA IX, 8920 nM on hCA II and over 10000 nM at hCA I.
For the compound `NS(=O)(=O)c1ccc2nc(Cc3ccc(O)cc3)[nH]c2c1` [Compound 7, 2-(4-Hydroxybenzyl)-1H-benzo[d]imidazole-6-sulfonamide], the Ki came out at 63.8 nM on hCA XII, 73.9 nM at hCA IX, 91.9 nM at hCA II and 442 nM at hCA I. Moreover, the “SR XII/II (Selectivity Ratio)” value at hCA XII came to 1.4. The “SR IX/II (Selectivity Ratio)” value on hCA IX is 1.2.
For `NS(=O)(=O)c1ccc2nc(-c3ccc(C(=O)O)cc3)[nH]c2c1` [Compound 11, 4-(6-Sulfamoyl-1H-benzo[d]imidazol-2-yl)benzoic acid], the Ki at hCA XII turned out to be 57 nM; on hCA IX, 64.3 nM; on hCA II, 133 nM; at hCA I, 97.6 nM. For the same compound, on hCA XII, the “SR XII/II (Selectivity Ratio)” value is 2.3. Further, on hCA IX, the “SR IX/II (Selectivity Ratio)” value is listed as 2.1.
`NS(=O)(=O)c1ccc2nc(CCc3ccc(O)cc3)[nH]c2c1` [Compound 8, 2-(4-Hydroxyphenethyl)-1H-benzo[d]imidazole-6-sulfonamide]: the inhibitory constant (Ki) is 9.8 nM at hCA XII, 14.4 nM at hCA IX, 47.8 nM at hCA II and 214 nM at hCA I. Besides, the “SR XII/II (Selectivity Ratio)” value on hCA XII was determined as 4.9. Further, the “SR IX/II (Selectivity Ratio)” value at hCA IX is 3.3.
Regarding `COC(=O)c1ccc(-c2nc3ccc(S(N)(=O)=O)cc3[nH]2)cc1` [Compound 10, Methyl 4-(6-sulfamoyl-1H-benzo[d]imidazol-2-yl)benzoate], the Ki was 72.2 nM at hCA XII, 29.6 nM at hCA IX, 185 nM at hCA II and 208 nM at hCA I. Moreover, the “SR XII/II (Selectivity Ratio)” value on hCA XII worked out at 2.6. Further, on hCA IX, the “SR IX/II (Selectivity Ratio)” value amounted to 6.3.
Turning to `COC(=O)c1cc(-c2nc3ccc(S(N)(=O)=O)cc3[nH]2)ccc1O` [Compound 13, Methyl 2-hydroxy-5-(6-sulfamoyl-1H-benzo[d]imidazol-2-yl)benzoate], the Ki on hCA XII was found to be 22.3 nM; on hCA IX it was 2.2 nM; on hCA II, 50.8 nM; on hCA I it was 126 nM. Moreover, the “SR XII/II (Selectivity Ratio)” value at hCA XII is given as 2.3. The “SR IX/II (Selectivity Ratio)” value at hCA IX was determined as 23.1.
For `NS(=O)(=O)c1ccc2nc(-c3ccc(O)c(C(=O)O)c3)[nH]c2c1` [Compound 14, 2-hydroxy-5-(6-sulfamoyl-1H-benzo[d]imidazol-2-yl)benzoic acid], the inhibitory constant (Ki) stood at 3.8 nM at hCA XII, 34.2 nM at hCA IX, 68.6 nM at hCA II and 95.6 nM at hCA I. Further, at hCA XII, the “SR XII/II (Selectivity Ratio)” value is 18.1. The “SR IX/II (Selectivity Ratio)” value on hCA IX was 2.0.
With `NS(=O)(=O)c1ccc2nc(-c3ccc(O)c(O)c3)[nH]c2c1` [Compound 12, 2-(3,4-Dihydroxyphenyl)-1H-benzo[d]imidazole-6-sulfonamide], the inhibition constant Ki turned out to be 8.5 nM on hCA XII, 41.6 nM on hCA IX, 79 nM on hCA II and 169 nM at hCA I. Moreover, the “SR IX/II (Selectivity Ratio)” value on hCA IX came out at 1.9.
Take `NS(=O)(=O)c1ccc2nc(CCc3ccc(O)c(C(=O)O)c3)[nH]c2c1` [Compound 18, 2-Hydroxy-5-(2-(6-sulfamoyl-1H-benzo[d]imidazol-2-yl)ethyl)benzoic acid]: the inhibition constant Ki amounted to 4.2 nM on hCA XII, 7.6 nM at hCA IX, 24.8 nM at hCA II and 441 nM at hCA I. Moreover, on hCA XII, the “SR XII/II (Selectivity Ratio)” value is 5.9. Besides, at hCA IX, the “SR IX/II (Selectivity Ratio)” value amounted to 3.3.
Consider `CCNS(=O)(=O)c1ccc2nc(-c3ccc(O)c(C(=O)O)c3)[nH]c2c1` [Compound 16, 5-(6-(N-ethylsulfamoyl)-1H-benzo[d]imidazol-2-yl)-2-hydroxybenzoic acid], for which the Ki was 464 nM at hCA XII, 665 nM on hCA IX, 7580 nM at hCA II and over 10000 nM on hCA I.
On to `NS(=O)(=O)c1ccc2nc(-c3ccc(O)cc3)[nH]c2c1` [Compound 6, 2-(4-Hydroxyphenyl)-1H-benzo[d]imidazole-6-sulfonamide], for which the Ki at hCA XII is 44.1 nM; on hCA IX, 17.4 nM; on hCA II it was 101 nM; at hCA I, 238 nM. For the same compound, the “SR XII/II (Selectivity Ratio)” value on hCA XII worked out at 2.3. At hCA IX, the “SR IX/II (Selectivity Ratio)” value stood at 5.8.
On to `NS(=O)(=O)c1ccc2nc(-c3ccccc3)[nH]c2c1` [Compound 9, 2-Phenyl-1H-benzo[d]imidazole-6-sulfonamide], for which the inhibitory constant (Ki) worked out at 78.9 nM on hCA XII, 47.6 nM on hCA IX, 104 nM at hCA II and 92.8 nM at hCA I. In addition, on hCA XII, the “SR XII/II (Selectivity Ratio)” value is listed as 1.3. Further, on hCA IX, the “SR IX/II (Selectivity Ratio)” value is reported as 2.2.
Turning to `NC(=O)c1ccc2nc(-c3ccc(O)c(C(=O)O)c3)[nH]c2c1` [Compound 19, 5-(6-Carbamoyl-1H-benzo[d]imidazol-2-yl)-2-hydroxybenzoic acid], the Ki on hCA XII, at hCA IX, at hCA II and on hCA I was over 10000 nM in each case.

The values above are taken from PMC6758606, “Novel 2-substituted-benzimidazole-6-sulfonamides as carbonic anhydrase inhibitors: synthesis, biological evaluation against isoforms I, II, IX and XII and molecular docking studies” (Journal of Enzyme Inhibition and Medicinal Chemistry, 2019).
